{"source": "paper PMC2897734", "about": "(Current topics in medicinal chemistry, 2009)", "format_in_all_cases": "binding", "key": {"[1]": {"biological_target": "T1, putative adenylate kinase (Leishmania major, UniProt Q4Q7A6)", "T1 sequence (Q4Q7A6 1-180)": "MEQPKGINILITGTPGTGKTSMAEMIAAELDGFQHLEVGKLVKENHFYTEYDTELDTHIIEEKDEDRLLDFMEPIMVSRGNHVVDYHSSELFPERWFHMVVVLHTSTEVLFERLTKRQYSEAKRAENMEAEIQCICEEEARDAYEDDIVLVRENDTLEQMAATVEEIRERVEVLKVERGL", "experiment": "fragment cocktail soak, crystal electron density"}, "[2]": {"biological_target": "T2, uracil-DNA glycosylase (Leishmania naiffi, UniProt D0VWU0)", "T2 sequence (D0VWU0 1-260)": "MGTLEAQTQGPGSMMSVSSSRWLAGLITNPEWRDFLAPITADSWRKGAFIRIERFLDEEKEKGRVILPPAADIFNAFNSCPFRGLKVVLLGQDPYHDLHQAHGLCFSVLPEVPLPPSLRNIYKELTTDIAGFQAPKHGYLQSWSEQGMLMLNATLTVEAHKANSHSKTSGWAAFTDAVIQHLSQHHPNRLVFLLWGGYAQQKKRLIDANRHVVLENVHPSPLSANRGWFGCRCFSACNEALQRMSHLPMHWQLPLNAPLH", "experiment": "fragment cocktail soak, crystal structure"}, "[3]": {"biological_target": "T2, uracil-DNA glycosylase", "experiment": "fragment cocktail soak, crystal structure", "remark": "listed apart in the source"}, "[4]": {"biological_target": "coproporphyrinogen III oxidase (Leishmania major, UniProt P84155)", "sequence (P84155 whole entry, the tested form may be a part)": "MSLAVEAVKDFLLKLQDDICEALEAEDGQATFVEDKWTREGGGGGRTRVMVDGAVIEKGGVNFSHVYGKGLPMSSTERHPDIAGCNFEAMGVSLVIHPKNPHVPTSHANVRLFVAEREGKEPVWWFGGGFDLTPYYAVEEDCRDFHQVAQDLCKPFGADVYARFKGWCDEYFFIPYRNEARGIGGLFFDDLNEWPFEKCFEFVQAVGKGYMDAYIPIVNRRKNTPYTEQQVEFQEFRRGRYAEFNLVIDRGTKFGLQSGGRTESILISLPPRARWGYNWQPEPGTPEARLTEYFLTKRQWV", "experiment": "fragment cocktail soak, crystal structure"}, "[5]": {"biological_target": "T3, phosphoglycerate mutase (PGM) (Plasmodium falciparum, UniProt Q8IIG6)", "T3 sequence (Q8IIG6 1-250)": "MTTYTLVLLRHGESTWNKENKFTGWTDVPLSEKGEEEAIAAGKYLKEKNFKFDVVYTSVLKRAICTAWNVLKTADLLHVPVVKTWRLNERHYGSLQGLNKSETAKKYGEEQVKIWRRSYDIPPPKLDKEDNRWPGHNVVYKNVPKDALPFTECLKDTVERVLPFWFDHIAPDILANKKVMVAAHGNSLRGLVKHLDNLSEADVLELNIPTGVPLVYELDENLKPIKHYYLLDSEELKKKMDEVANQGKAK", "experiment": "fragment cocktail soak, crystal electron density"}}}
{"compound": "Cc1cc(N)c2ccccc2n1", "note": "[4-amino-2-methylquinoline]", "values": [{"measurement": "fragment cocktail soak, crystal electron density", "setting": "[1]", "result": "Electron density for 4-amino-2-methylquinoline when bound to L.major adenylate kinase (left)"}]}
{"compound": "c1cc(N2CCOCC2)ccn1", "note": "[4-morpholinopyridine]", "values": [{"measurement": "fragment cocktail soak, crystal structure", "setting": "[2]", "result": "Fragments bound to L.naiffi uracil-DNA glycosylase: 4-morpholinopyridine (left upper)"}]}
{"compound": "COc1ccc(Cl)cc1C(=O)O", "note": "[5-chloro-2-methoxybenzoic acid]", "values": [{"measurement": "IC50", "setting": "[3]", "result": "~15", "unit": "mM"}]}
{"compound": "O=C(O)c1cc2cc(F)ccc2[nH]1", "note": "[5-fluoroindole-2-carboxylic acid]", "values": [{"measurement": "fragment cocktail soak, crystal structure", "setting": "[4]", "result": "Fragments from two different cocktails were found to bind: 5-fluoroindole-2-carboxylic acid (PDB: 3DWS)"}]}
{"compound": "O=C(O)c1ccc(-c2ccccc2)o1", "note": "[5-phenyl-2-furoic acid]", "values": [{"measurement": "fragment cocktail soak, crystal electron density", "setting": "[5]", "result": "Electron density for 5-Phenyl-2-furoic acid when bound to P.falciparum PGM (left)"}]}
{"compound": "O=C(O)c1ccc2cccc(O)c2n1", "note": "[8-hydroxyquinoline-2-carboxylic acid]", "values": [{"measurement": "fragment cocktail soak, crystal structure", "setting": "[2]", "result": "DMSO and 8-hydroxyquinoline-2-carboxylic acid (left lower)"}]}
